Assay results reported in BindingDB's records for doi:10.1016/0014-2999(93)90488-4 (Maryland Psychiatric Research Center, 1993).

How the values were obtained:
D(4) dopamine receptor = molecular target: T1, D(4) dopamine receptor (Homo sapiens, UniProt P21917)
T1 sequence (P21917 whole entry): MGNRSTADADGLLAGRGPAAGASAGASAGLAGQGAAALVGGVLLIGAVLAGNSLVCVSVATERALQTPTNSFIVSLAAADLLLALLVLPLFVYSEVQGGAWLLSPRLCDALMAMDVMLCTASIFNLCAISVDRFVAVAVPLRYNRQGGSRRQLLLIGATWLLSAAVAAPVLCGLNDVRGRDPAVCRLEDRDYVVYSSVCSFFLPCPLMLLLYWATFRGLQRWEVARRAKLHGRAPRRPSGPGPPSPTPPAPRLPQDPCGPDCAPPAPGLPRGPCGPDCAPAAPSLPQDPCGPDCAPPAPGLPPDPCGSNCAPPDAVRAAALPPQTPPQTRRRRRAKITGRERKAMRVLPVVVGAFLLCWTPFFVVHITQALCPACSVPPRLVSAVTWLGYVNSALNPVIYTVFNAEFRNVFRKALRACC

D(2) dopamine receptor = D(2) dopamine receptor (Homo sapiens, UniProt P14416)
D(2) dopamine receptor, sequence (P14416 whole entry): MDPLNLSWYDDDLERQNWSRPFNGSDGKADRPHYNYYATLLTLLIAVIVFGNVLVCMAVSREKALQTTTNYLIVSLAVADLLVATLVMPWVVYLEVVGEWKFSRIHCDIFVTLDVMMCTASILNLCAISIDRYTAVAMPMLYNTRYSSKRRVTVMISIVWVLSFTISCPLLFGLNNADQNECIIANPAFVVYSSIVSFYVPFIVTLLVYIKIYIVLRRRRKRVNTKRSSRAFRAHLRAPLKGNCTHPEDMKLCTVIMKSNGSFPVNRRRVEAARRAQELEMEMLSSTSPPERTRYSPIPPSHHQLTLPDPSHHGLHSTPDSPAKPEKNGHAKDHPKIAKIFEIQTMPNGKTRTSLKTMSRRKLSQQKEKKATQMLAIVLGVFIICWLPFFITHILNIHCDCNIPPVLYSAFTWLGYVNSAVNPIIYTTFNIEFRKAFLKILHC

| SMILES | Ki (D(4) dopamine receptor) | Ki (D(2) dopamine receptor) |
| --- | --- | --- |
| CCN(CC)C(=O)N[C@H]1C[C@@H]2c3cccc4[nH]cc(c34)C[C@H]2N(C)C1 | 5.2 nM | 0.7 nM |
| CCCN[C@@H]1CCc2c(OC)cccc2[C@@H]1C | 132 nM | 120 nM |
| CN1CCN(CCCN2c3ccccc3Sc3ccc(C(F)(F)F)cc32)CC1 | – | 1.1 nM |
| CCN1CCC[C@H]1CNC(=O)c1c(O)c(Cl)cc(Cl)c1OC [3,5-Dichloro-N-(1-ethyl-pyrrolidin-2-ylmethyl)-2-hydroxy-6-methoxy-benzamide (raclopride)] | 1340 nM | – |
| CSc1ccc2c(c1)N(CC[C@@H]1CCCCN1C)c1ccccc1S2 [10-[2-(1-Methyl-piperidin-2-yl)-ethyl]-2-methylsulfanyl-10H-phenothiazine (thioridazine)] | 22.9 nM | – |
| CN1CCN(C2=Nc3ccccc3Oc3ccc(Cl)cc32)CC1 [13-chloro-10-(4-methylpiperazin-1-yl)-2-oxa-9-azatricyclo[9.4.0.0^{3,8}]pentadeca-1(11),3,5,7,9,12,14-heptaene] | 29 nM | – |
| CC1CCN(CCCC(=O)c2ccc(F)cc2)CC1 [CAS_3575-80-2] | 139 nM | – |
| CCCN1CCCC(c2cccc(O)c2)C1 (configuration not stated) [CAS_85976-54-1] | 546 nM | – |
| CCCN(CCC)C1C=Cc2c(OC)cccc2C1C (configuration not stated) [CAS_5311190] | 66.5 nM | 29.4 nM |
| O=C(O)c1ccccc1C(=O)Nc1cccc2ccccc12 [NPA,(+)] | 120 nM | 291 nM |
| CN1C[C@@H](NC(=O)C(C)(C)C)CC2c3cccc4[nH]c(Cl)c(c34)C[C@H]21 (some centres not stated) [SDZ-208-912] | 3.5 nM | 0.9 nM |
| CCCOc1ccc2nc(NC(=O)OC)[nH]c2c1 [SMR000058208] | 152 nM | – |
